# Patent US10975016B2, “Solvent compounds for use as glycol ether replacements” (TBF ENVIRONMENTAL TECHNOLOGY INC., priority 2017, dated 2021)
# Key:
# [1] = Physical/chemical properties of XBC4 (GlykoSol)
# [2] = XBC vs Dipropylene Glycol Methyl Ether (DPM) in acrylic modified epoxy ester based paint: physical and coating properties; settings: for Specific Gravity: acrylic modified epoxy ester (Epotuf 38-698) based paint; for VOC (Without Water) / Viscosity / Volume Solid % / Weight Solid %: acrylic modified epoxy ester based paint
# Procedure: The properties of XBC4, in comparison to dipropylene glycol methyl ether (DPM), in an acrylic-modified epoxy ester-based paint were determined to be as follows: […]
# [3] = VOC (calculated) of water-based paint formulas; assay type: physicochemical; settings: water-based paints, substituted for propylene glycol
# Procedure: Bis(2-ButoxyEthyl Carbonate) was tested in a number of water-based flat paints, as follows. Water was added to a container and the additives were added. The container was placed under a high speed disperser and mixed under slow speed. Natrosol™ hydroxyethylcellulose was added slowly and allowed to mix for 10 minutes increasing speed as needed. The pigments were then added, slowly increasing speed and water as needed. After the pigments were added, the speed was increased to about 2800 rpms. After 10 to 15 minutes the speed was reduced to about 1000 rpms. The latex was added slowly into the vortex. The rest of the water and other additives (depending on the formulation) were then added and allowed to mix for 5 minutes.
# In some tests, bis(2-ButoxyEthyl Carbonate) was substituted for propylene glycol to evaluate its effectiveness in replacing propylene glycol to create a lower VOC and lower toxicity material.
smiles,measurement,setting,value
"CCCCOCCOC(=O)OCCOCCCC [XBC4, bis(2-ButoxyEthyl Carbonate)]",Auto Ignition Temp,[1],305 (581° F.) ° C.
same,Boiling Point,[1],297 (566.6° F.) ° C.
same,Butyl Cellosolve Solubility,[1],Soluble
same,Clarity,[1],Clear
same,"Colour (Alpha, max)",[1],10 (Clear)
same,Flashpoint,[1],146.1 (295° F.) ° C.
same,Odor,[1],No Odor
same,Partial Coefficient (Range),[1],1.9-3.0
same,Volatility (%),[1],100%
same,Water Solubility,[1],Not Soluble
same,Specific Gravity,[1]; @15.5° C.,0.985
same,Density,[1]; @ 20° C.,0.980 (8.22 lbs/gal) g/mL
same,Solubility in H2O,[1]; @ 25° C.,Partially Soluble
same,Vapour Pressure,[1]; @ 25° C.,0.008 mm Hg
same,Viscosity,[1]; @ 25° C.,0.60 cP
same,VOC,[1]; ASTM 313-91,0 g/L
same,Vapour Density (Air = 1),[1]; Air = 1,0.95
same,TGA Weight Loss,[1]; Range 115-240°,99.47%
same,Evaporation Rate (n-Butyl Acetate = 1),[1]; n-Butyl Acetate = 1,0.01
same,Specific Gravity,[2],1.23 g/cm3
same,VOC (Without Water),[2],34 g/L
same,Viscosity,[2],90 KU
same,Volume Solid %,[2],35.5%
same,Weight Solid %,[2],46.9%
same,VOC of paint after replacement of propylene glycol,[3],far lower or zero (0) VOC materials
"COC(C)COC(C)CO (stereo not drawn) [DPM, dipropylene glycol methyl ether, reference compound]",Specific Gravity,[2],1.23 g/cm3
same,VOC (Without Water),[2],110 g/L
same,Viscosity,[2],90 KU
same,Volume Solid %,[2],35.5%
same,Weight Solid %,[2],46.9%
